Measured values: PMC3899232, “Peptide Binding Properties of the Three PDZ Domains of Bazooka (Drosophila Par-3)” (PLoS ONE, 2014)
Where “and” joins values, the source holds several entries; their conditions need not be identical. Identical values can stand only once. One block for each molecule: values may come before it. Ends that are not written are not given here. Peptide text beside a SMILES is read from it. * marks the point of attachment. Biotin = O=C1N[C@H]2[C@H](CS[C@H]2CCCCC(=O)*)N1

What was measured:
[1] = biological target: GST-PDZ2 (Baz PDZ2) (Drosophila melanogaster, UniProt Q0KHR3); assay: SPR binding of peptides to immobilized GST-PDZ2 (Biacore 3000); details: for Kd: GST-PDZ2 immobilized on CM5 at 30 µg/ml in 10 mM HEPES pH 7.0, HBS-EP running buffer pH 7.4, steady state model
GST-PDZ2 (Baz PDZ2), sequence (Q0KHR3 1-1520): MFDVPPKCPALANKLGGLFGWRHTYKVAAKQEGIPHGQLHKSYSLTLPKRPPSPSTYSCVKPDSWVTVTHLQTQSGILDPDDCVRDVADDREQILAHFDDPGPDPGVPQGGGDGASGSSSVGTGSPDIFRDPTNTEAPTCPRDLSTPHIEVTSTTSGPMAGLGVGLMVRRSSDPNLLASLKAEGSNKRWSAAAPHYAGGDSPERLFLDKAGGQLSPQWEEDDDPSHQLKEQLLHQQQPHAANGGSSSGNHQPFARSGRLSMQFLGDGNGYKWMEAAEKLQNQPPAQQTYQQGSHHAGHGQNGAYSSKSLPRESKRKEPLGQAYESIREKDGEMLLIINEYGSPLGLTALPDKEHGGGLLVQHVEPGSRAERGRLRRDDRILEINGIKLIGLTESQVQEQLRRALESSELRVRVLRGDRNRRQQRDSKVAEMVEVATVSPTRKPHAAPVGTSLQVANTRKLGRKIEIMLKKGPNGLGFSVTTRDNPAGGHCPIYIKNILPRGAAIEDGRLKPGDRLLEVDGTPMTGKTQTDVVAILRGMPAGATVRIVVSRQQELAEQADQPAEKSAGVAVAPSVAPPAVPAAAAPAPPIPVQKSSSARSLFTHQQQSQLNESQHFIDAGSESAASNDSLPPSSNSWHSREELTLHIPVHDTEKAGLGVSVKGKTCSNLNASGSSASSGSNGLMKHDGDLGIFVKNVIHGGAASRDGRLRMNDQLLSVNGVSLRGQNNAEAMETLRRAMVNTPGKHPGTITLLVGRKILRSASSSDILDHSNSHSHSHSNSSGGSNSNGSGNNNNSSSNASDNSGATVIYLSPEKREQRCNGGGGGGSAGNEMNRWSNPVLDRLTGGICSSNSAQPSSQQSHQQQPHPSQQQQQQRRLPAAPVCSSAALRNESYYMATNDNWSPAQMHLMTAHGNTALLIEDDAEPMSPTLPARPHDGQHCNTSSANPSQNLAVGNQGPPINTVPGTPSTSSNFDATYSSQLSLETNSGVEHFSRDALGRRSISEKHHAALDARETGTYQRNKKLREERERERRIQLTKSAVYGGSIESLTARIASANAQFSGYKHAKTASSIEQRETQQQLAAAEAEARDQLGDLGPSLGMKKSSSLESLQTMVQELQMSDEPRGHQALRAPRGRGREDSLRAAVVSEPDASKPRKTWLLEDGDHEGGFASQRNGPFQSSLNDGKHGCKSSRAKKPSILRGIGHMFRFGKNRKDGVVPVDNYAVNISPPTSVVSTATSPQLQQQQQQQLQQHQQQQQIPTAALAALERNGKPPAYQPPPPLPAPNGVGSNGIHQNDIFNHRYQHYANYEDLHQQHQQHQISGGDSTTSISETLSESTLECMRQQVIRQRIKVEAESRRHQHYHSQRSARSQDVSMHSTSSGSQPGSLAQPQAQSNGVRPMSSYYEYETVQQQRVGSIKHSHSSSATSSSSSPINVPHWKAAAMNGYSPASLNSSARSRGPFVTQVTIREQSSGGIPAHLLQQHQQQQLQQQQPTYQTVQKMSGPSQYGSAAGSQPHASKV
Description: (§1) To test the binding of purified peptides to the PDZ domain GST fusion proteins, we acquired one peptide for each PDZ domain corresponding to single peptides identified by phage display (Fig. 3A). We separately immobilized PDZ domain GST fusion proteins on solid supports and analyzed peptide binding by surface plasmon resonance (SPR).
(§2) Binding experiments were conducted with a Biacore 3000 biosensor (GE Healthcare, USA), as described. Specifically, the GST fusion proteins of each PDZ domain alone or of the PDZ domains in tandem were immobilized on CM5 chips (GE Healthcare) at a concentration of 30 µg/ml in 10 mM sodium acetate (pH 5.5) for PDZ1, PDZ3 and PDZ1-3, and in 10 mM HEPES (pH 7.0) for PDZ2. The peptides for SPR were biotinylated but otherwise identical to those indentified by phage display (Peptide 1, Biotin-SAPGGGLRIVNGLWIF; Peptide 2, Biotin-SAPGGGDREWWV; Peptide 3, Biotin-SAPGGGRVLWFDLGIF; synthesized by Sheldon Biotechnology Centre, McGill University, Canada). All peptides were solubilized in HBS-EP running buffer (10 mM Hepes pH 7.4, 150 mM NaCl, 3 mM EDTA, 0.005% Surfactant P20) and were flowed over the immobilized proteins in this buffer. For Peptide 1 and Peptide 3, KD values were determined with a 1∶1 binding model with drifting baseline. For Peptide 2, KD values were determined with a steady state model.

[2] = biological target: GST-PDZ1-3 (Baz PDZ domains in tandem) (Drosophila melanogaster, UniProt Q0KHR3); assay: SPR binding of peptides to immobilized tandem GST-PDZ1-3 (Biacore 3000); details: for KD values of GST-PDZ1-3 compared with single GST-PDZ domains (in words): SPR, HBS-EP pH 7.4, tandem versus single PDZ domain alone; for Kd: tandem GST-PDZ1-3 immobilized on CM5 at 30 µg/ml in 10 mM sodium acetate pH 5.5, HBS-EP running buffer pH 7.4
GST-PDZ1-3 (Baz PDZ domains in tandem), sequence (Q0KHR3 1-1520): as above
From the text: With the binding strengths of individual PDZ domain-peptide interactions quantified, we next investigated whether the natural tandem arrangement of the PDZ domains affects their peptide binding. For these experiments, we purfied GST-PDZ1-3 and confirmed its stability by SDS-PAGE (Fig. 2B). To test the binding properties of the individual PDZ domains within the tandem, we separately probed GST-PDZ1-3 with Peptides 1, 2 and 3. […] To assess binding quantitatively, we determined the KD values of GST-PDZ1-3 binding to each peptide. […] Thus, the peptide binding pockets of each PDZ domain appear to be unaffected by tandem organization of the PDZ domains.
as §2

[3] = biological target: GST-PDZ3 (Baz PDZ3) (Drosophila melanogaster, UniProt Q0KHR3); assay: SPR binding of peptides to immobilized GST-PDZ3 (Biacore 3000); details: for Kd: GST-PDZ3 immobilized on CM5 at 30 µg/ml in 10 mM sodium acetate pH 5.5, HBS-EP running buffer pH 7.4, 1:1 binding model with drifting baseline
GST-PDZ3 (Baz PDZ3), sequence (Q0KHR3 1-1520): as above
Description: as §1, §2

[4] = biological target: GST-PDZ1 (Baz PDZ1) (Drosophila melanogaster, UniProt Q0KHR3); assay: SPR binding of peptides to immobilized GST-PDZ1 (Biacore 3000); details: for Kd: GST-PDZ1 immobilized on CM5 at 30 µg/ml in 10 mM sodium acetate pH 5.5, HBS-EP running buffer pH 7.4, 1:1 binding model with drifting baseline
GST-PDZ1 (Baz PDZ1), sequence (Q0KHR3 1-1520): as above
Description: as §1, §2

[5] = biological target: GST-PDZ2 (GST fusion protein of Baz PDZ2) (Drosophila); assay: SPR; Biacore 3000; GST fusion protein immobilised on CM5 chip (30 µg/ml; PDZ2 in 10 mM HEPES pH 7.0, PDZ1-3 in 10 mM sodium acetate pH 5.5); Peptide 2 flowed in HBS-EP (10 mM Hepes pH 7.4, 150 mM NaCl, 3 mM EDTA, 0.005% Surfactant P20); steady state model
[6] = biological target: GST-Baz PDZ1-3 (fusion protein containing all three PDZ domains and their normal linker regions) (Drosophila); assay: as above
[7] = biological target: GST-PDZ1 (GST fusion protein of Baz PDZ1) (Drosophila); assay: SPR; Biacore 3000; GST fusion protein immobilised on CM5 chip (30 µg/ml in 10 mM sodium acetate pH 5.5); Peptide 1 or Peptide 3 flowed in HBS-EP (10 mM Hepes pH 7.4, 150 mM NaCl, 3 mM EDTA, 0.005% Surfactant P20); 1:1 binding model with drifting baseline
[8] = biological target: GST-Baz PDZ1-3 (fusion protein containing all three PDZ domains and their normal linker regions) (Drosophila); assay: as above
[9] = biological target: GST-PDZ3 (GST fusion protein of Baz PDZ3) (Drosophila); assay: as above
[10] = replicate 1 (separately purified proteins, separately prepared peptides)
[11] = replicate 2 (separately purified proteins, separately prepared peptides)
[12] = replicate 1 (separately purified proteins, separately prepared peptides), Peptides 1 and 3: 1:1 binding model with drifting baseline
[13] = replicate 2 (separately purified proteins, separately prepared peptides), Peptides 1 and 3: 1:1 binding model with drifting baseline

Molecule: CC[C@H](C)[C@H](NC(=O)CNC(=O)[C@H](CC(C)C)NC(=O)[C@H](CC(=O)O)NC(=O)[C@H](Cc1ccccc1)NC(=O)[C@H](Cc1c[nH]c2ccccc12)NC(=O)[C@H](CC(C)C)NC(=O)[C@@H](NC(=O)[C@H](CCCNC(=N)N)NC(=O)CNC(=O)CNC(=O)CNC(=O)[C@@H]1CCCN1C(=O)[C@H](C)NC(=O)[C@H](CO)NC(=O)CCCC[C@@H]1SC[C@@H]2NC(=O)N[C@@H]21)C(C)C)C(=O)N[C@@H](Cc1ccccc1)C(=O)O [Peptide 3, Biotin-SAPGGGRVLWFDLGIF] (Biotin-SAPGGGRVLWFDLGIF-OH)
KD values of GST-PDZ1-3 compared with single GST-PDZ domains (in words) [2]: very close to those of each GST-PDZ domain alone
Kd [2, 12]: 49.4 nM
Kd [2, 13]: 32.6 nM
KD values (in words) ([3]; SPR, HBS-EP pH 7.4, GST-PDZ3, summary of Table 1): in the nM range
Kd [3, 10]: 45.9 nM
Kd [3, 11]: 25.2 nM

B3: Peptide 3 (Biotin-…) (peptide)
peptide: Biotin-SAPGGGRVLWFDLGIF
Kd [9]: 25.2 nM and 45.9 nM
Kd [8]: 49.4 nM and 32.6 nM

Continued, in another order:

KD values (in words) ([1]; SPR, HBS-EP pH 7.4, GST-PDZ2, summary of Table 1): in the µM range
Kd [1, 10]: 17700 nM
Kd [1, 11]: 13000 nM
Kd ([2]; replicate 1 (separately purified proteins, separately prepared peptides), Peptide 2: steady state model): 9130 nM
Kd ([2]; replicate 2 (separately purified proteins, separately prepared peptides), Peptide 2: steady state model): 9980 nM
Molecule: CC(C)[C@H](NC(=O)[C@H](Cc1c[nH]c2ccccc12)NC(=O)[C@H](Cc1c[nH]c2ccccc12)NC(=O)[C@H](CCC(=O)O)NC(=O)[C@H](CCCNC(=N)N)NC(=O)[C@H](CC(=O)O)NC(=O)CNC(=O)CNC(=O)CNC(=O)[C@@H]1CCCN1C(=O)[C@H](C)NC(=O)[C@H](CO)NC(=O)CCCC[C@@H]1SC[C@@H]2NC(=O)N[C@@H]21)C(=O)O [Peptide 2, Biotin-SAPGGGDREWWV] (Biotin-SAPGGGDREWWV-OH)
KD values of GST-PDZ1-3 compared with single GST-PDZ domains (in words) [2]: very close to those of each GST-PDZ domain alone

Kd [2, 12]: 263 nM
Kd [2, 13]: 245 nM
KD values (in words) ([4]; SPR, HBS-EP pH 7.4, GST-PDZ1, summary of Table 1): in the nM range
Kd [4, 10]: 164 nM
Kd [4, 11]: 186 nM
Molecule: CC[C@H](C)[C@H](NC(=O)[C@H](Cc1c[nH]c2ccccc12)NC(=O)[C@H](CC(C)C)NC(=O)CNC(=O)[C@H](CC(N)=O)NC(=O)[C@@H](NC(=O)[C@@H](NC(=O)[C@H](CCCNC(=N)N)NC(=O)[C@H](CC(C)C)NC(=O)CNC(=O)CNC(=O)CNC(=O)[C@@H]1CCCN1C(=O)[C@H](C)NC(=O)[C@H](CO)NC(=O)CCCC[C@@H]1SC[C@@H]2NC(=O)N[C@@H]21)[C@@H](C)CC)C(C)C)C(=O)N[C@@H](Cc1ccccc1)C(=O)O [Peptide 1, Biotin-SAPGGGLRIVNGLWIF] (Biotin-SAPGGGLRIVNGLWIF-OH)
KD values of GST-PDZ1-3 compared with single GST-PDZ domains (in words) [2]: very close to those of each GST-PDZ domain alone

Kd [5]: 17700 nM and 13000 nM
Kd [6]: 9130 nM and 9980 nM
B1: Peptide 2 (Biotin-…) (peptide)
peptide: Biotin-SAPGGGDREWWV

Kd [7]: 164 nM and 186 nM
Kd [8]: 263 nM and 245 nM
B2: Peptide 1 (Biotin-…) (peptide)
peptide: Biotin-SAPGGGLRIVNGLWIF
